From PubChem BioAssay AID2060884 (Molecular Pharmacology Branch, DTP, NCI, 2025)

Test system: NCI-H929 complex spheroids, viability % test/control
Assay: Anticancer human tumor NCI-H929 cell line growth inhibition [RAS];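 also: compound exposure lasted seven days before viability was read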
Settings: for viability, T/C: stronger effect = lower value; active = viability on the fitted dose curve at most 10% of control; inactive = the rest
Excerpt: RAS pathway inhibitors in Combinations in Complex Spheroids
A high-throughput screen of multi-cell type tumor spheroids was designed to identify active combinations of RAS pathway inhibitors and targeted small molecules. Complex spheroids include a stromal component modeled by human endothelial cells (HUVEC) and fibroblasts modeled by human mesenchymal stem cells (MSCs). The concentration ranges selected for each drug and investigational agent were based upon clinically achievable concentrations if the clinical Cmax of the agent was known.
Compounds. The drugs and investigational agents: abemaciclib (NSC768073), cobimetinib (NSC768068), divarasib (GDC6063, NSC841802), docetaxel (NSC628503), GDC-1971 (RLY-1971, NSC841576), gemcitabine (NSC613327), inavolisib (NSC800729), ipatasertib (NSC767898), KB-0742 (NSC834161), MRTX-1133 (NSC836407), osimertinib (NSC779217), RMC-4630 (NSC839698), RMC-6236 (NSC851965), RMC-6291 (NSC852671), Ro-3306 (NSC812927), sapanisertib (NSC764658), SN-38 (NSC673596), staurosporine (NSC755774), SY5609 (NSC837396), and tovorafenib (DAY101, NSC766906), were obtained from the National Cancer Institute (NCI) Developmental Therapeutics Program Chemical Repository. The FDA-approved anticancer drug set is available from the NCI Developmental Therapeutics Program. […] The stock solutions were prepared in dimethyl sulfoxide (DMSO, Sigma-Aldrich, St. Louis, MO, cat. D2650) at 800-fold the tested concentration and stored at -70 degrees C prior to their use. All drugs and investigational agents were tested over a range starting from a high concentration at or near the clinical Cmax and decreasing in half-log increments. If the clinical Cmax for an agent had not been determined, the highest concentration tested was 10 microM.
Cell Culture. All cells were maintained in an incubator at 37 degrees C and 5% CO2 with 95% humidity. The PDC lines were cultured according to standard operating procedures established by the NCI PDMR. All PDCs were thawed and cultured in Matrigel-coated flasks prepared with a working solution of 1X Ham's F-12 nutrient mix, without supplementation (Invitrogen, Waltham, MA, cat. 11765054), 100 U/mL penicillin-streptomycin (Invitrogen, cat. 15140122), and 2.5% Matrigel (Corning Inc., Corning, NY, cat. 354248) for the first three passages. The 362531-283-R-J2-PDC and 782815-120-R-J1-PDC lines were cultured in 6C/Colon 1B media, which includes advanced DMEM/F-12 (Thermo Fisher Scientific, cat. 12634028), 10 mM HEPES (Thermo Fisher Scientific, cat. 15630080), 1X GlutaMAX supplement (Thermo Fisher Scientific, cat. 35050061), 0.1 mg/mL primocin (InvivoGen, San Diego, CA, cat. ant-pm-2), 10% defined fetal bovine serum, heat inactivated (HyClone Laboratories Inc., Logan, UT, cat. SH30070.03HI), 50% L-WRN conditioned media (ATCC, cat. CRL-3276), 1.25 mM N-Acetyl-L-cysteine (Sigma-Aldrich, cat. A9165), 10 mM nicotinamide (Sigma-Aldrich, cat. N0636), 1X B-27 supplement (Thermo Fisher Scientific, cat. 17504044), 1X N-2 supplement (Thermo Fisher Scientific, cat. 17502048), 50 ng/mL human EGF (Thermo Fisher Scientific, cat. PHG0311), and 10 microM Y-27632 dihydrochloride (Tocris Bioscience, cat. 1254). The K12877-001-R-J1-PDC line was cultured in 6I media, which includes all 6C/Colon 1B media plus 10 ng/mL human FGF-10 (PeproTech, cat. 100-26), 1 ng/mL human FGF-2 (PeproTech, cat. 100-18B), 1 µM prostaglandin E2 (Tocris Bioscience, cat. 2296), […] hydrocortisone (Sigma-Aldrich, cat. H4001), and […] bovine insulin (Sigma-Aldrich, cat. I6634). The K86415-001-R-J1-PDC line was cultured in 6D media, which includes all 6C/Colon 1B media components minus the L-WRN conditioned media. The 485176-168-R4-J1-PDC was cultured in PANC media, which includes all 6C/Colon 1B media plus 100 ng/mL human FGF-10 (PeproTech, cat. 100-26), 500 nM SB-431542 (Selleckchem, cat. S1067), and 10 nM gastrin (Tocris Bioscience, cat. 3006). […]

[1] = curve of first compound, second compound 0.000949 µM
[2] = curve of first compound, second compound 0.003 µM
[3] = curve of first compound, second compound 0.00949 µM
[4] = curve of first compound, second compound 0.03 µM
[5] = curve of first compound, second compound 0.0949 µM
[6] = curve of first compound, second compound 0.3 µM
[7] = second compound 0.000949 µM, first compound 0.0316 µM
[8] = second compound 0.000949 µM, first compound 0.1 µM
[9] = second compound 0.000949 µM, first compound 0.316 µM
[10] = second compound 0.000949 µM, first compound 1 µM
[11] = second compound 0.003 µM, first compound 0.0316 µM
[12] = second compound 0.003 µM, first compound 0.1 µM
[13] = second compound 0.003 µM, first compound 0.316 µM
[14] = second compound 0.003 µM, first compound 1 µM
[15] = second compound 0.00949 µM, first compound 0.0316 µM
[16] = second compound 0.00949 µM, first compound 0.1 µM
[17] = second compound 0.00949 µM, first compound 0.316 µM
[18] = second compound 0.00949 µM, first compound 1 µM
[19] = second compound 0.03 µM, first compound 0.0316 µM
[20] = second compound 0.03 µM, first compound 0.1 µM
[21] = second compound 0.03 µM, first compound 0.316 µM
[22] = second compound 0.03 µM, first compound 1 µM
[23] = second compound 0.0949 µM, first compound 0.0316 µM
[24] = second compound 0.0949 µM, first compound 0.1 µM
[25] = second compound 0.0949 µM, first compound 0.316 µM
[26] = second compound 0.0949 µM, first compound 1 µM
[27] = second compound 0.3 µM, first compound 0.0316 µM
[28] = second compound 0.3 µM, first compound 0.1 µM
[29] = second compound 0.3 µM, first compound 0.316 µM
[30] = second compound 0.3 µM, first compound 1 µM

C=CC(=O)N1CCN(c2nc(OCC3CCCN3C)nc3c(F)c(-c4nc(N)cc(C)c4C(F)(F)F)c(Cl)cc23)C(C)C1 (stereo unspecified) + CCn1c(-c2cccnc2C(C)OC)c2c3cc(ccc31)N1CCOC(CC(NC(=O)C(C(C)C)N(C)C(=O)C3(F)CCN(C(=O)C#CC(C)(C)N(C)C)CC3)C(=O)N3CCCC(N3)C(=O)OCC(C)(C)C2)C1
> 1000 nM: IC50 [1] | IC50 [2] | IC50 [3] | IC50 [4] | IC50 [5] | IC50 [6]
inactive: viability, T/C (second compound 0.000949 µM, first compound 0.00316 µM) 104% | viability, T/C (second compound 0.000949 µM, first compound 0.01 µM) 103% | viability, T/C [7] 103% | viability, T/C [8] 104% | viability, T/C [9] 102% | viability, T/C [10] 105% | viability, T/C (second compound 0.003 µM, first compound 0.00316 µM) 104% | viability, T/C (second compound 0.003 µM, first compound 0.01 µM) 105% | viability, T/C [11] 101% | viability, T/C [12] 102% | viability, T/C [13] 107% | viability, T/C [14] 104% | viability, T/C (second compound 0.00949 µM, first compound 0.00316 µM) 104% | viability, T/C (second compound 0.00949 µM, first compound 0.01 µM) 101% | viability, T/C [15] 106% | viability, T/C [16] 107% | viability, T/C [17] 106% | viability, T/C [18] 105% | viability, T/C (second compound 0.03 µM, first compound 0.00316 µM) 102% | viability, T/C (second compound 0.03 µM, first compound 0.01 µM) 99.7% | viability, T/C [19] 106% | viability, T/C [20] 105% | viability, T/C [21] 106% | viability, T/C [22] 107% | viability, T/C (second compound 0.0949 µM, first compound 0.00316 µM) 102% | viability, T/C (second compound 0.0949 µM, first compound 0.01 µM) 103% | viability, T/C [23] 106% | viability, T/C [24] 104% | viability, T/C [25] 107% | viability, T/C [26] 104% | viability, T/C (second compound 0.3 µM, first compound 0.00316 µM) 102% | viability, T/C (second compound 0.3 µM, first compound 0.01 µM) 104% | viability, T/C [27] 106% | viability, T/C [28] 107% | viability, T/C [29] 107% | viability, T/C [30] 103%

CCn1c(-c2cccnc2C(C)OC)c2c3cc(ccc31)N1CCOC(CC(NC(=O)C(C(C)C)N(C)C(=O)C3(F)CCN(C(=O)C#CC(C)(C)N(C)C)CC3)C(=O)N3CCCC(N3)C(=O)OCC(C)(C)C2)C1 (stereo unspecified)
> 300 nM: IC50 (compound alone, run of 08/20/2024)
inactive: viability, T/C (compound 0.000949 µM) 107% [middle of 8 runs] | viability, T/C (compound 0.003 µM) 106% [middle of 8 runs] | viability, T/C (compound 0.00949 µM) 106% [middle of 8 runs] | viability, T/C (compound 0.03 µM) 104% [middle of 8 runs] | viability, T/C (compound 0.0949 µM) 99.9% [middle of 8 runs] | viability, T/C (compound 0.3 µM) 98.9% [middle of 8 runs]

CCC(CC)c1cc(NC2CCC(N)C2)n2nccc2n1 (stereo unspecified) + CCn1c(-c2cc(N3CCN(C)CC3)cnc2C(C)OC)c2c3cc(ccc31)-c1csc(n1)CC(NC(=O)C1CC1C)C(=O)N1CCCC(N1)C(=O)OCC(C)(C)C2
738 nM: IC50 [3]
1430 nM: IC50 [1]
active: viability, T/C (second compound 0.000949 µM, first compound 3.16 µM) 0.36% | viability, T/C (second compound 0.000949 µM, first compound 10 µM) 0.25% | viability, T/C (second compound 0.003 µM, first compound 3.16 µM) 0.43% | viability, T/C (second compound 0.003 µM, first compound 10 µM) 0.14% | viability, T/C (second compound 0.00949 µM, first compound 3.16 µM) 0.16% | viability, T/C (second compound 0.00949 µM, first compound 10 µM) 0.13% | viability, T/C [22] 2.49% | viability, T/C (second compound 0.03 µM, first compound 3.16 µM) 0.12% | viability, T/C (second compound 0.03 µM, first compound 10 µM) 0.1% | viability, T/C [23] 6.21% | viability, T/C [24] 6.5% | viability, T/C [25] 6.35% | viability, T/C [26] 0.97% | viability, T/C (second compound 0.0949 µM, first compound 3.16 µM) 0.11% | viability, T/C (second compound 0.0949 µM, first compound 10 µM) 0.09% | viability, T/C [27] 4.59% | viability, T/C [28] 3.76% | viability, T/C [29] 2.94% | viability, T/C [30] 1.37% | viability, T/C (second compound 0.3 µM, first compound 3.16 µM) 0.14% | viability, T/C (second compound 0.3 µM, first compound 10 µM) 0.12%
1620 nM: IC50 [2]
< 31.6 nM: IC50 [4] | IC50 [5] | IC50 [6]
inactive: viability, T/C [7] 104% | viability, T/C [8] 94.4% | viability, T/C [9] 101% | viability, T/C [10] 72.3% | viability, T/C [11] 96.1% | viability, T/C [12] 93.5% | viability, T/C [13] 102% | viability, T/C [14] 85.8% | viability, T/C [15] 114% | viability, T/C [16] 117% | viability, T/C [17] 115% | viability, T/C [18] 26.6% | viability, T/C [19] 36.7% | viability, T/C [20] 34.9% | viability, T/C [21] 49.8%
